Measured values from patent publication US20060134102A1, “Lymphotoxin beta receptor agents in combination with chemotherapeutic agents” (Biogen Idec MA Inc., priority 2002, published 2006).
“And” between values parts separate entries of the source, which are not always exact repeats. Equal values may be shown once.

Tested on: KM-20L2 human colorectal adenocarcinoma
Experiment: KM-20L2 xenograft model: growth of established KM-20L2 human colorectal tumors in athymic nude mice (tumor volume/weight, % T/C, Fa, Combination Index)
Type: in vivo

huCBE11: humanized anti-LT-β-R agonist antibody (LTβ receptor-activating mAb), described in WO 02/30986
Mean Fraction Affected (Fa) (huCBE11 2 mg/kg, Day 9): 0.103 | Mean Fraction Affected/Fraction Unaffected (Fa/Fu) (huCBE11 2 mg/kg, Day 9): 0.115 | Mean Tumor Volume (huCBE11 2 mg/kg, Day 9): 100.3 cubic mm | Mean Tumor Volume Decrease (huCBE11 2 mg/kg, Day 9): 11.5 cubic mm | Mean Fraction Affected (Fa) (huCBE11 2 mg/kg, Day 13): 0.057 | Mean Fraction Affected/Fraction Unaffected (Fa/Fu) (huCBE11 2 mg/kg, Day 13): 0.061 | Mean Tumor Volume (huCBE11 2 mg/kg, Day 13): 162.7 cubic mm | Mean Tumor Volume Decrease (huCBE11 2 mg/kg, Day 13): 9.9 cubic mm | Mean Fraction Affected (Fa) (huCBE11 2 mg/kg, Day 16): 0.119 | Mean Fraction Affected/Fraction Unaffected (Fa/Fu) (huCBE11 2 mg/kg, Day 16): 0.135 | Mean Tumor Volume (huCBE11 2 mg/kg, Day 16): 233.5 cubic mm | Mean Tumor Volume Decrease (huCBE11 2 mg/kg, Day 16): 31.5 cubic mm | Mean Fraction Affected (Fa) (huCBE11 2 mg/kg, Day 20): 0.342 | Mean Fraction Affected/Fraction Unaffected (Fa/Fu) (huCBE11 2 mg/kg, Day 20): 0.521 | Mean Tumor Volume (huCBE11 2 mg/kg, Day 20): 263.7 cubic mm | Mean Tumor Volume Decrease (huCBE11 2 mg/kg, Day 20): 137.3 cubic mm | Mean Fraction Affected/Fraction Unaffected (Fa/Fu) (huCBE11 2 mg/kg, Day 23): 0.554 | Mean Tumor Volume (huCBE11 2 mg/kg, Day 23): 339.2 cubic mm | Mean Tumor Volume Decrease (huCBE11 2 mg/kg, Day 23): 188.0 cubic mm | Mean Fraction Affected (Fa) (huCBE11 2 mg/kg, Day 27): 0.419 | Mean Fraction Affected/Fraction Unaffected (Fa/Fu) (huCBE11 2 mg/kg, Day 27): 0.720 | Mean Tumor Volume (huCBE11 2 mg/kg, Day 27): 388.7 cubic mm | Mean Tumor Volume Decrease (huCBE11 2 mg/kg, Day 27): 279.9 cubic mm | Mean Fraction Affected (Fa) (huCBE11 2 mg/kg, Day 30): 0.449 | Mean Fraction Affected/Fraction Unaffected (Fa/Fu) (huCBE11 2 mg/kg, Day 30): 0.813 | Mean Tumor Volume (huCBE11 2 mg/kg, Day 30): 450.1 cubic mm | Mean Tumor Volume Decrease (huCBE11 2 mg/kg, Day 30): 366.1 cubic mm | Mean Fraction Affected (Fa) (huCBE11 2 mg/kg, Day 34): 0.505 | Mean Fraction Affected/Fraction Unaffected (Fa/Fu) (huCBE11 2 mg/kg, Day 34): 1.020 | Mean Tumor Volume (huCBE11 2 mg/kg, Day 34): 519.9 cubic mm | Mean Tumor Volume Decrease (huCBE11 2 mg/kg, Day 34): 530.4 cubic mm | Mean Fraction Affected (Fa) (huCBE11 2 mg/kg, Day 37): 0.520 | Mean Fraction Affected/Fraction Unaffected (Fa/Fu) (huCBE11 2 mg/kg, Day 37): 1.082 | Mean Tumor Volume (huCBE11 2 mg/kg, Day 37): 580.1 cubic mm | Mean Tumor Volume Decrease (huCBE11 2 mg/kg, Day 37): 627.9 cubic mm | Mean Fraction Affected (Fa) (huCBE11 2 mg/kg, Day 41): 0.567 | Mean Fraction Affected/Fraction Unaffected (Fa/Fu) (huCBE11 2 mg/kg, Day 41): 1.310 | Mean Tumor Volume (huCBE11 2 mg/kg, Day 41): 623.2 cubic mm | Mean Tumor Volume Decrease (huCBE11 2 mg/kg, Day 41): 816.2 cubic mm | Mean Fraction Affected (Fa) (huCBE11 2 mg/kg, Day 43): 0.588 | Mean Fraction Affected/Fraction Unaffected (Fa/Fu) (huCBE11 2 mg/kg, Day 43): 1.424 | Mean Tumor Volume (huCBE11 2 mg/kg, Day 43): 662.7 cubic mm | Mean Tumor Volume Decrease (huCBE11 2 mg/kg, Day 43): 944.0 cubic mm | Tumor growth vs vehicle control (huCBE11 4 mg/kg and 2 mg/kg, Days 20-55, separate study): significantly decreased | Mean Fraction Affected (Fa) (huCBE11 4 mg/kg, Day 9): −0.125 | Mean Fraction Affected/Fraction Unaffected (Fa/Fu) (huCBE11 4 mg/kg, Day 9): −0.111 | Mean Tumor Volume (huCBE11 4 mg/kg, Day 9): 125.8 cubic mm | Mean Tumor Volume Decrease (huCBE11 4 mg/kg, Day 9): −14.0 cubic mm | Mean Fraction Affected (Fa) (huCBE11 4 mg/kg, Day 13): −0.048 | Mean Fraction Affected/Fraction Unaffected (Fa/Fu) (huCBE11 4 mg/kg, Day 13): −0.046 | Mean Tumor Volume (huCBE11 4 mg/kg, Day 13): 180.9 cubic mm | Mean Tumor Volume Decrease (huCBE11 4 mg/kg, Day 13): −8.3 cubic mm | Mean Fraction Affected/Fraction Unaffected (Fa/Fu) (huCBE11 4 mg/kg, Day 16): 0.070 | Mean Tumor Volume (huCBE11 4 mg/kg, Day 16): 247.6 cubic mm | Mean Tumor Volume Decrease (huCBE11 4 mg/kg, Day 16): 17.4 cubic mm | Mean Fraction Affected (Fa) (huCBE11 4 mg/kg, Day 20): 0.307 | Mean Fraction Affected/Fraction Unaffected (Fa/Fu) (huCBE11 4 mg/kg, Day 20): 0.442 | Mean Tumor Volume (huCBE11 4 mg/kg, Day 20): 278.0 cubic mm | Mean Tumor Volume Decrease (huCBE11 4 mg/kg, Day 20): 123.0 cubic mm | Mean Fraction Affected (Fa) (huCBE11 4 mg/kg, Day 23): 0.347 | Mean Fraction Affected/Fraction Unaffected (Fa/Fu) (huCBE11 4 mg/kg, Day 23): 0.531 | Mean Tumor Volume (huCBE11 4 mg/kg, Day 23): 344.3 cubic mm | Mean Tumor Volume Decrease (huCBE11 4 mg/kg, Day 23): 182.9 cubic mm | Mean Fraction Affected (Fa) (huCBE11 4 mg/kg, Day 27): 0.423 | Mean Fraction Affected/Fraction Unaffected (Fa/Fu) (huCBE11 4 mg/kg, Day 27): 0.733 | Mean Tumor Volume (huCBE11 4 mg/kg, Day 27): 385.8 cubic mm | Mean Tumor Volume Decrease (huCBE11 4 mg/kg, Day 27): 282.8 cubic mm | Mean Fraction Affected (Fa) (huCBE11 4 mg/kg, Day 30): 0.412 | Mean Fraction Affected/Fraction Unaffected (Fa/Fu) (huCBE11 4 mg/kg, Day 30): 0.700 | Mean Tumor Volume (huCBE11 4 mg/kg, Day 30): 480.1 cubic mm | Mean Tumor Volume Decrease (huCBE11 4 mg/kg, Day 30): 336.1 cubic mm | Mean Fraction Affected (Fa) (huCBE11 4 mg/kg, Day 34): 0.468 | Mean Fraction Affected/Fraction Unaffected (Fa/Fu) (huCBE11 4 mg/kg, Day 34): 0.879 | Mean Tumor Volume (huCBE11 4 mg/kg, Day 34): 558.9 cubic mm | Mean Tumor Volume Decrease (huCBE11 4 mg/kg, Day 34): 491.4 cubic mm | Mean Fraction Affected (Fa) (huCBE11 4 mg/kg, Day 37): 0.511 | Mean Fraction Affected/Fraction Unaffected (Fa/Fu) (huCBE11 4 mg/kg, Day 37): 1.044 | Mean Tumor Volume (huCBE11 4 mg/kg, Day 37): 591.1 cubic mm | Mean Tumor Volume Decrease (huCBE11 4 mg/kg, Day 37): 616.9 cubic mm | Mean Fraction Affected (Fa) (huCBE11 4 mg/kg, Day 41): 0.512 | Mean Fraction Affected/Fraction Unaffected (Fa/Fu) (huCBE11 4 mg/kg, Day 41): 1.050 | Mean Tumor Volume (huCBE11 4 mg/kg, Day 41): 702.0 cubic mm | Mean Tumor Volume Decrease (huCBE11 4 mg/kg, Day 41): 737.4 cubic mm | Mean Fraction Affected (Fa) (huCBE11 4 mg/kg, Day 43): 0.518 | Mean Fraction Affected/Fraction Unaffected (Fa/Fu) (huCBE11 4 mg/kg, Day 43): 1.073 | Mean Tumor Volume (huCBE11 4 mg/kg, Day 43): 775.1 cubic mm | Mean Tumor Volume Decrease (huCBE11 4 mg/kg, Day 43): 831.6 cubic mm | Inhibition of tumor growth vs vehicle control (huCBE11 20 mg/kg Days 16 through 55, 2 mg/kg Days 16 through 55, 0.2 mg/kg Days 20 through 55, separate study): significant inhibition of tumor growth | Mean Fraction Affected (Fa) (huCBE11 20 mg/kg alone, Day 9): 0.053 | Mean Fraction Affected (Fa) (huCBE11 20 mg/kg alone, Day 13, 20 mg/kg): 0.087 and 0.086 | Mean Fraction Affected (Fa) (huCBE11 20 mg/kg alone, Day 16, 20 mg/kg): 0.263 and 0.264 | Mean Fraction Affected (Fa) (huCBE11 20 mg/kg alone, Day 20): 0.435 | Mean Fraction Affected (Fa) (huCBE11 20 mg/kg alone, Day 23): 0.504 | Mean Fraction Affected (Fa) (huCBE11 20 mg/kg alone, Day 27): 0.576 | Mean Fraction Affected (Fa) (huCBE11 20 mg/kg alone, Day 30): 0.539 | Mean Fraction Affected (Fa) (huCBE11 20 mg/kg alone, Day 34): 0.543 | Mean Fraction Affected (Fa) (huCBE11 20 mg/kg alone, Day 37): 0.525 | Mean Fraction Affected (Fa) (huCBE11 20 mg/kg alone, Day 41): 0.538 | % T/C (huCBE11 20 mg/kg, Day 27 (lowest observed)): 42.4% | Activity by NCI criteria (% T/C at or below 42) (huCBE11, studies of the Camptosar example): inactive | Activity by NCI criteria (% T/C of 42 or less) (huCBE11, studies of the gemcitabine example): active | % T/C (huCBE11 dose groups, throughout both studies (Camptosar example)): > 42%
